Patent US20040235747A1, “Methods of treating and/or preventing autoimmune diseases” (Ramot At Tel-Aviv University Ltd., priority 2003, published 2004)

Experiments:
MOG-induced EAE mice = test: MOG-induced chronic autoimmune encephalomyelitis (EAE), clinical score; format: in vivo, C57/b mice; conditions: NAP intranasal 0.1 microgram/mouse daily; day 11 on, P<0.01, t-test, vs control mixture without NAP (FIG. 1)
splenocytes = test: Proliferative T-cell response of splenocytes (thymidine incorporation) from MOG-induced EAE mice; format: cell-based, mouse
Source text: FIG. 2 illustrates the thymidine incorporation into splenocytes in a MOG-induced mouse model in the presence (filled circles) or absence (open circles) of NAP.
An additional experiment included proliferative T-cell response performed as described by Offen et al., supra.

Asn-Ala-Pro-Val-Ser-Ile-Pro-Gln [NAP]
clinical outcome (clinical manifestations of EAE, score 0-6) (MOG-induced EAE mice): significantly improved the clinical outcome
proliferative response of splenocytes (cell proliferation, immune response) (splenocytes; MS model treated with NAP compared to untreated, P<0.01 (FIG. 2)): much reduced
effect of added MOG on splenocyte proliferation (splenocytes; splenocytes of NAP-treated animals, MOG up to 25 micrograms, untreated splenocytes showed increased proliferation even at 2 micrograms/well): no effect
